Columns and labels:
[1] = Drug level in Beagle dog liver at 5 mg/kg administered intramuscularly after 3 months; type: ADME, organism-based, Canis lupus familiaris; set-up: dose 5 mg/kg, route intramuscular; settings: im, read-out: Drug uptake
[2] = Cmax in male dog at 200 mg, sc after 85 days; settings: in vivo
[3] = Drug level in Beagle dog lymph node mandibular at 5 mg/kg, sc after 3 months; type: ADME, organism-based, Canis lupus familiaris; set-up: dose 5 mg/kg, route subcutaneous; settings: read-out: Drug uptake
[4] = Plasma concentration in male Beagle dog at 200 mg/kg administered intramuscularly after 3 months; type: ADME, organism-based, Canis lupus familiaris; set-up: dose 200 mg/kg, route intramuscular; settings: im
[5] = Ratio of drug level in thymus to plasma in female Beagle dog at 200 mg/kg administered intramuscularly after 3 months; type: ADME, organism-based, Canis lupus familiaris; set-up: dose 200 mg/kg, route intramuscular; settings: im
[6] = Drug level in Beagle dog lymph node popliteal at 5 mg/kg, sc after 6 months; type: ADME, organism-based, Canis lupus familiaris; set-up: dose 5 mg/kg, route subcutaneous; settings: read-out: Drug uptake
[7] = Drug level in male Beagle dog spleen at 200 mg/kg, sc after 1 month; type: ADME, organism-based, Canis lupus familiaris; set-up: dose 200 mg/kg, route subcutaneous; settings: read-out: Drug uptake
[8] = Plasma concentration in male Beagle dog at 400 mg/kg administered intramuscularly after 3 months; type: ADME, organism-based, Canis lupus familiaris; set-up: dose 400 mg/kg, route intramuscular; settings: im
[9] = Tmax in Beagle dog at 5 mg/kg administered intramuscularly after 176 days; type: ADME, organism-based, Canis lupus familiaris; set-up: dose 5 mg/kg, route intramuscular; settings: in vivo, im
[10] = Drug level in Beagle dog lymph node iliac at 5 mg/kg administered intramuscularly after 3 months; type: ADME, organism-based, Canis lupus familiaris; set-up: dose 5 mg/kg, route intramuscular; settings: im, read-out: Drug uptake
[11] = Drug level in Beagle dog lymph node iliac at 5 mg/kg, sc after 1 month; type: ADME, organism-based, Canis lupus familiaris; set-up: dose 5 mg/kg, route subcutaneous; settings: read-out: Drug uptake
[12] = Ratio of drug level in lymph node iliac to plasma in Beagle dog at 5 mg/kg, sc after 3 months; type: ADME, organism-based, Canis lupus familiaris; set-up: dose 5 mg/kg, route subcutaneous
[13] = Drug level in female Beagle dog thymus at 400 mg/kg administered intramuscularly after 1 month; type: ADME, organism-based, Canis lupus familiaris; set-up: dose 400 mg/kg, route intramuscular; settings: im, read-out: Drug uptake
[14] = Ratio of drug level in thymus to plasma in female Beagle dog at 400 mg/kg administered intramuscularly after 1 month; type: ADME, organism-based, Canis lupus familiaris; set-up: dose 400 mg/kg, route intramuscular; settings: im
[15] = AUC (0 to infinity) in Sprague-Dawley rat at 1.25 mg/kg, iv after 2 days; type: ADME, organism-based; set-up: time infinity, dose 1.25 mg/kg, route intravenous; settings: plasma
[16] = Ratio of drug level in lymph node iliac to plasma in Beagle dog at 5 mg/kg, sc after 1 month; type: ADME, organism-based, Canis lupus familiaris; set-up: dose 5 mg/kg, route subcutaneous
[17] = Cmax in female dog at 400 mg administered intramuscularly after 85 days; settings: in vivo, im
[18] = Drug level in male Beagle dog spleen at 200 mg/kg administered intramuscularly after 3 months; type: ADME, organism-based, Canis lupus familiaris; set-up: dose 200 mg/kg, route intramuscular; settings: im, read-out: Drug uptake
[19] = Cmax in female dog at 200 mg, sc after 29 days; settings: in vivo
[20] = Drug level in Beagle dog skin at injected site at 5 mg/kg, sc after 6 months; type: ADME, organism-based, Canis lupus familiaris, Zone of skin; set-up: dose 5 mg/kg, route subcutaneous; settings: read-out: Drug uptake
[21] = system: Canis familiaris; assay: Toxicity in Beagle dog assessed as irritation at 20 mg/kg, sc after 3 months; type: organism-based, Canis lupus familiaris; set-up: dose 20 mg/kg, route subcutaneous; settings: in vivo, 2191.5 h
[22] = Cmax in female dog at 200 mg administered intramuscularly after 85 days; settings: in vivo, im
[23] = Ratio of drug level in thymus to plasma in male Beagle dog at 200 mg/kg administered intramuscularly after 1 month; type: ADME, organism-based, Canis lupus familiaris; set-up: dose 200 mg/kg, route intramuscular; settings: im
[24] = Drug level in female Beagle dog spleen at 200 mg/kg, sc after 3 months; type: ADME, organism-based, Canis lupus familiaris; set-up: dose 200 mg/kg, route subcutaneous; settings: read-out: Drug uptake
[25] = Drug level in female Beagle dog thymus at 400 mg/kg, sc after 3 months; type: ADME, organism-based, Canis lupus familiaris; set-up: dose 400 mg/kg, route subcutaneous; settings: read-out: Drug uptake
[26] = Ratio of drug level in thymus to plasma in male Beagle dog at 400 mg/kg, sc after 3 months; type: ADME, organism-based, Canis lupus familiaris; set-up: dose 400 mg/kg, route subcutaneous
[27] = Drug level in Beagle dog lymph node mandibular at 5 mg/kg administered intramuscularly after 3 months; type: ADME, organism-based, Canis lupus familiaris; set-up: dose 5 mg/kg, route intramuscular; settings: im, read-out: Drug uptake
[28] = Ratio of drug level in spleen to plasma in female Beagle dog at 400 mg/kg, sc after 1 month; type: ADME, organism-based, Canis lupus familiaris; set-up: dose 400 mg/kg, route subcutaneous
[29] = Ratio of drug level in spleen to plasma in male Beagle dog at 400 mg/kg, sc after 1 month; type: ADME, organism-based, Canis lupus familiaris; set-up: dose 400 mg/kg, route subcutaneous
[30] = Ratio of drug level in spleen to plasma in female Beagle dog at 400 mg/kg administered intramuscularly after 1 month; type: ADME, organism-based, Canis lupus familiaris; set-up: dose 400 mg/kg, route intramuscular; settings: im
[31] = AUC (0 to last) in female dog at 400 mg administered intramuscularly after 85 days; settings: plasma, im
[32] = Drug level in male Beagle dog spleen at 200 mg/kg administered intramuscularly after 1 month; type: ADME, organism-based, Canis lupus familiaris; set-up: dose 200 mg/kg, route intramuscular; settings: im, read-out: Drug uptake
[33] = Tmax in male dog at 400 mg administered intramuscularly after 85 days; settings: in vivo, im
[34] = Drug level in female Beagle dog thymus at 200 mg/kg administered intramuscularly after 1 month; type: ADME, organism-based, Canis lupus familiaris; set-up: dose 200 mg/kg, route intramuscular; settings: im, read-out: Drug uptake
[35] = Drug level in Beagle dog skin at non-injected site at 5 mg/kg administered intramuscularly after 3 months; type: ADME, organism-based, Canis lupus familiaris, Zone of skin; set-up: dose 5 mg/kg, route intramuscular; settings: im, read-out: Drug uptake
[36] = Drug level in Beagle dog thymus at 5 mg/kg administered intramuscularly after 6 months; type: ADME, organism-based, Canis lupus familiaris; set-up: dose 5 mg/kg, route intramuscular; settings: im, read-out: Drug uptake
[37] = Ratio of drug level in spleen to plasma in male Beagle dog at 200 mg/kg, sc after 1 month; type: ADME, organism-based, Canis lupus familiaris; set-up: dose 200 mg/kg, route subcutaneous
[38] = Ratio of drug level in thymus to plasma in male Beagle dog at 200 mg/kg administered intramuscularly after 3 months; type: ADME, organism-based, Canis lupus familiaris; set-up: dose 200 mg/kg, route intramuscular; settings: im
[39] = Drug level in female Beagle dog spleen at 400 mg/kg, sc after 3 months; type: ADME, organism-based, Canis lupus familiaris; set-up: dose 400 mg/kg, route subcutaneous; settings: read-out: Drug uptake
[40] = Ratio of drug level in spleen to plasma in male Beagle dog at 200 mg/kg administered intramuscularly after 3 months; type: ADME, organism-based, Canis lupus familiaris; set-up: dose 200 mg/kg, route intramuscular; settings: im
[41] = Ratio of drug level in lymph node axillar to plasma in Beagle dog at 5 mg/kg, sc after 6 months; type: ADME, organism-based, Canis lupus familiaris; set-up: dose 5 mg/kg, route subcutaneous; settings: axillary lymph node/plasma
[42] = Drug level in Beagle dog muscle at non-injected site at 5 mg/kg administered intramuscularly after 6 months; type: ADME, organism-based, Canis lupus familiaris, Muscle tissue; set-up: dose 5 mg/kg, route intramuscular; settings: im, read-out: Drug uptake
[43] = Absolute bioavailability in Beagle dog at 5 mg/kg, sc after 176 days; type: ADME, organism-based, Canis lupus familiaris; settings: in vivo
[44] = Plasma concentration in female Beagle dog at 400 mg/kg administered intramuscularly after 3 months; type: ADME, organism-based, Canis lupus familiaris; set-up: dose 400 mg/kg, route intramuscular; settings: im
[45] = Plasma concentration in male Beagle dog at 200 mg/kg, sc after 3 months; type: ADME, organism-based, Canis lupus familiaris; set-up: dose 200 mg/kg, route subcutaneous
[46] = Ratio of drug level in thymus to plasma in female Beagle dog at 200 mg/kg, sc after 1 month; type: ADME, organism-based, Canis lupus familiaris; set-up: dose 200 mg/kg, route subcutaneous
[47] = Drug level in male Beagle dog spleen at 400 mg/kg, sc after 3 months; type: ADME, organism-based, Canis lupus familiaris; set-up: dose 400 mg/kg, route subcutaneous; settings: read-out: Drug uptake
[48] = Ratio of drug level in lymph node mandibular to plasma in Beagle dog at 5 mg/kg, sc after 3 months; type: ADME, organism-based, Canis lupus familiaris; set-up: dose 5 mg/kg, route subcutaneous
[49] = Drug level in female Beagle dog spleen at 200 mg/kg administered intramuscularly after 3 months; type: ADME, organism-based, Canis lupus familiaris; set-up: dose 200 mg/kg, route intramuscular; settings: im, read-out: Drug uptake
[50] = Ratio of drug level in thymus to plasma in Beagle dog at 5 mg/kg, sc after 6 months; type: ADME, organism-based, Canis lupus familiaris; set-up: dose 5 mg/kg, route subcutaneous
[51] = Ratio of drug level in thymus to plasma in male Beagle dog at 400 mg/kg, sc after 1 month; type: ADME, organism-based, Canis lupus familiaris; set-up: dose 400 mg/kg, route subcutaneous
[52] = Drug level in Beagle dog lymph node popliteal at 5 mg/kg administered intramuscularly after 3 months; type: ADME, organism-based, Canis lupus familiaris; set-up: dose 5 mg/kg, route intramuscular; settings: im, read-out: Drug uptake
[53] = Ratio of drug level in lymph node popliteal to plasma in Beagle dog at 5 mg/kg, sc after 1 month; type: ADME, organism-based, Canis lupus familiaris; set-up: dose 5 mg/kg, route subcutaneous
[54] = Drug level in male Beagle dog thymus at 200 mg/kg administered intramuscularly after 3 months; type: ADME, organism-based, Canis lupus familiaris; set-up: dose 200 mg/kg, route intramuscular; settings: im, read-out: Drug uptake
[55] = Drug level in Beagle dog muscle at non-injected site at 5 mg/kg administered intramuscularly after 3 months; type: ADME, organism-based, Canis lupus familiaris, Muscle tissue; set-up: dose 5 mg/kg, route intramuscular; settings: im, read-out: Drug uptake

## Cc1cc(/C=C/C#N)cc(C)c1Nc1ccnc(Nc2ccc(C#N)cc2)n1 [RILPIVIRINE]
[1]
  concentration at 2191.5 h: 20.8 ng/g
[2]
  Cmax: 107 ng/mL
[3]
  concentration at 2191.5 h: 13.1 ng/g
[4]
  concentration at 2191.5 h: 9.2 ng/mL
[5]
  Kp at 2191.5 h: 2.8
[6]
  concentration at 4383 h: 5.5 ng/g
[7]
  concentration at 730.5 h: 189 ng/g
[8]
  concentration at 2191.5 h: 22.1 ng/mL
[9]
  Tmax: 0.5 h
[10]
  concentration at 2191.5 h: 15.3 ng/g
[11]
  concentration at 730.5 h: 64.9 ng/g
[12]
  Kp at 2191.5 h: 5.2
[13]
  concentration at 730.5 h: 676 ng/g
[14]
  Kp at 730.5 h: 6
[15]
  AUC(0-inf): 1.23 µg·h/mL
[16]
  Kp at 730.5 h: 3.9
[17]
  Cmax: 5260 ng/mL
[18]
  concentration at 2191.5 h: 23.8 ng/g
[19]
  Cmax: 185 ng/mL
[20]
  concentration at 4383 h: 143000 ng/g
[21]
  Activity: Non-toxic
[22]
  Cmax: 1140 ng/mL
[23]
  Kp at 730.5 h: 3.2
[24]
  concentration at 2191.5 h: 49.5 ng/g
[25]
  concentration at 2191.5 h: 101 ng/g
[26]
  Kp at 2191.5 h: 3.5
[27]
  concentration at 2191.5 h: 10 ng/g
[28]
  Kp at 730.5 h: 2.5
[29]
  Kp at 730.5 h: 2.9
[30]
  Kp at 730.5 h: 2.6
[31]
  AUC(0-t) at 2040 h: 265 µg·h/mL
[32]
  concentration at 730.5 h: 133 ng/g
[33]
  Tmax: 17 h
[34]
  concentration at 730.5 h: 353 ng/g
[35]
  concentration at 2191.5 h: 12.4 ng/g
[36]
  concentration at 4383 h: 7.2 ng/g
[37]
  Kp at 730.5 h: 2
[38]
  Kp at 2191.5 h: 3.8
[39]
  concentration at 2191.5 h: 67.5 ng/g
[40]
  Kp at 2191.5 h: 2.7
[41]
  Kp at 4383 h: 6.7
[42]
  concentration at 4383 h: < 5 ng/g
[43]
  bioavailability: 80%
[44]
  concentration at 2191.5 h: 20.3 ng/mL
[45]
  concentration at 2191.5 h: 15.2 ng/mL
[46]
  Kp at 730.5 h: 3.9
[47]
  concentration at 2191.5 h: 11.3 ng/g
[48]
  Kp at 2191.5 h: 4
[49]
  concentration at 2191.5 h: 22.1 ng/g
[50]
  Kp at 4383 h: 16
[51]
  Kp at 730.5 h: 2.9
[52]
  concentration at 2191.5 h: 13.7 ng/g
[53]
  Kp at 730.5 h: 4.1
[54]
  concentration at 2191.5 h: 34.4 ng/g
[55]
  concentration at 2191.5 h: 84.1 ng/g

Reference: ChEMBL document CHEMBL1687756 (Antimicrob Agents Chemother, 2010)
